In publication PMC3842914, “Meleagrin, a New FabI Inhibitor from Penicillium chryosogenum with at Least One Additional Mode of Action” (PLoS ONE, 2013):
≈ marks a conversion by molar mass, not a printed value. Like-named read-outs stand apart in the source and are kept apart here.

What was measured:
S. aureus FabI = molecular target: T1, S. aureus FabI (Staphylococcus aureus, UniProt Q6GI75); assay: Fluorescence quenching assay (direct binding); settings: increasing amounts of compound; FabI fluorescence at 307 nm
T1 construct: made in house
T1 sequence (Q6GI75 1-256): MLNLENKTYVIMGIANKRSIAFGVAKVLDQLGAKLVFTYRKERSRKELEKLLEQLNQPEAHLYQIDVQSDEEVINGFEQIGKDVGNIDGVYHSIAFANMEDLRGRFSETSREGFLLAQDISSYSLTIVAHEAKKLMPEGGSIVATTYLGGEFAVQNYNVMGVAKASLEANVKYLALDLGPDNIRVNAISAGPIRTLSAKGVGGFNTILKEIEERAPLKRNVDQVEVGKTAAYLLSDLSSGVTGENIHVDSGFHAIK
Protocol: Fluorescence spectra were measured using a SHIMADZU fluorescence spectrophotometer (model RF-5310PC). […] Protein quenching was monitored at 25°C by using 5-nm excitation and 5-nm emission wavelength. The excitation wavelength was 280 nm, and the emission spectra were measured between 290 and 430 nm.

E. coli EW1b = assay: Overexpression assay, MIC for pump-negative (tolC) E. coli EW1b; assay type: cell-based; settings: Escherichia coli
Protocol: (§1) Whole-cell antimicrobial activity was determined by broth microdilution as described previously. The test strains except for S. pneumoniae were grown to mid-log phase in Mueller–Hinton broth and diluted 1,000-fold in the same medium. Cells (10^5/mL) were inoculated into Mueller–Hinton broth and dispensed at 0.2 mL/well into a 96-well microtiter plate. S. pneumoniae was grown in tryptic soy broth supplemented with 5% sheep blood. MICs were determined in triplicate by serial 2-fold dilutions of test compounds. […] Bacterial growth was determined by measuring the absorption at 650 nm by using a microtiter ELISA reader.
(§2) An overexpression assay using S. aureus RN4220, S. aureus RN4220 (pE194), and S. aureus RN4220 (pE194-fabI) was conducted to perform target validation of FabI inhibitors as described previously. Additionally, both fabI- and fabK-overexpressing E. coli were constructed to test a multitarget effect of the compounds. The wild-type fabI gene from the genomic DNA of E. coli W3110 was amplified by PCR by using the primers 5′-[…]-3′ and 5′-[…]-3′. The wild-type fabK gene from the genomic DNA of S. pneumoniae KCTC 5412 was amplified by PCR by using the primers 5′-[…]-3′ and 5′-[…] […]-3′. The resulting products were cloned into the pBAD-TOPO TA expression vector (Invitrogen, Carlsbad, CA, USA) to yield the pBAD-fabI and pBAD-fabK recombinant plasmids, which placed the expression of the genes fabI and fabK, respectively, under the control of the arabinose promoter. Recombinant pBAD-fabI and pBAD-fabK were then introduced into the pump-negative (tolC) E. coli EW1b via electroporation to generate E. coli EW1b (pBAD-fabI) and E. coli EW1b (pBAD-fabK), respectively.

S. aureus KCTC 1916 [1] = assay: MIC, S. aureus KCTC 1916; assay type: cell-based; settings: Staphylococcus aureus, KCTC1916
Protocol: as §1

S. aureus RN4220 [2] = assay: Inhibition of macromolecular biosynthesis (radiolabeled precursor incorporation) in S. aureus; assay type: cell-based, Staphylococcus aureus; settings: drugs at 2 times the MIC
Protocol: (§3) To monitor the effects of compound 1 on lipid, DNA, RNA, protein, and cell wall biosynthesis, its effects on the incorporation of [1-^14C] acetate (50 mCi/mmol), [2-^14C] thymidine (59.8 mCi/mmol), [U-^14C] uridine (539 mCi/mmol), L-[U-^14C] leucine (306 mCi/mmol) or L-[U-^14C] isoleucine (329 mCi/mmol), and N-acetyl-D-[1-^14C] glucosamine (58.1 mCi/mmol) into S. aureus and S. pneumoniae were measured as described previously. S. aureus was exponentially grown to an A650 of 0.2 in Mueller–Hinton broth. S. pneumoniae was grown in tryptic soy broth supplemented with 5% sheep blood. […] An equal volume of DMSO solvent was added to the untreated control. After incubation with the radiolabeled precursors at 37°C for 1 h, followed by centrifugation, the cell pellets were washed twice with PBS buffer. After acetate incorporation, the total cellular lipids were extracted with chloroform-methanol-water. The incorporated radioactivity in the chloroform phase was measured by scintillation counting. For the other precursors, incorporation was terminated by adding 10% (w/v) TCA and cooling on ice for 20 min. The precipitated material was collected on Whatman GF/C glass microfiber filters, washed with TCA and ethanol, dried, and counted using a scintillation counter. The total counts incorporated at 1 h of incubation without inhibitors ranged from >7,000 for [U-^14C] uridine to <13,000 for [1-^14C] acetate. […] In all experiments, known antibacterial agents were included as positive controls.

S. pneumoniae KCTC 3932 = assay: Inhibition of macromolecular biosynthesis (radiolabeled precursor incorporation) in S. pneumoniae; assay type: cell-based, Streptococcus pneumoniae; settings: drugs at 2 times the MIC
Protocol: as §3

S. aureus KCTC 1916 [3] = assay type: cell-based, Staphylococcus aureus; settings: exposure 4× MIC
Protocol: (§4) The frequency of spontaneous resistance was determined for S. aureus RN4220, S. aureus KCTC 1916, and E. coli KCTC 1942. […] The organisms were grown to log-phase by dilution of an overnight culture in fresh media and re-incubation at 35°C until the cultures reached a cell density of approximately 10^9 CFU/mL. […] Inocula were determined by applying 100 μl of 10-fold dilutions on solid media without drug. Colony-forming units were counted after 48 h incubation at 35°C. The ratio of the number of colonies on drug-containing plates to that on control plates was calculated as the in vitro frequency of isolation of CFU.

S. aureus RN4220 [4] = assay type: cell-based, Staphylococcus aureus; settings: exposure 4× MIC
Protocol: as §4

E. coli EW1b(pBAD-fabI) = assay: Overexpression assay, MIC for fabI-overexpressing E. coli EW1b (pBAD-fabI); assay type: cell-based; settings: for MIC for fabI-overexpressing E. coli relative to wild-type and vector-containing E. coli: E. coli EW1b (pBAD-fabI) vs E. coli EW1b and E. coli EW1b (pBAD), in the presence of arabinose; for MIC: Escherichia coli
Protocol: as §1, §2

E. coli KCTC 1924 = assay type: cell-based; settings: exposure 4× MIC
Protocol: as §4

E. coli EW1b(pBAD-fabK) = assay: Overexpression assay, MIC for fabK-overexpressing E. coli EW1b (pBAD-fabK); assay type: cell-based; settings: Escherichia coli
Protocol: as §1, §2

[5] = MIC against other gram-positive bacteria; assay type: cell-based; settings: Staphylococcus aureus
Protocol: as §1

[6] = read-out: MIC E. coli EW1b (+) Ara
[7] = read-out: MIC E. coli EW1b (−) Ara
[8] = read-out: MIC E. coli EW1b(pBAD-fabI) (+) Ara
[9] = read-out: MIC E. coli EW1b(pBAD-fabI) (−) Ara
[10] = read-out: MIC E. coli EW1b(pBAD-fabK) (+) Ara
[11] = read-out: MIC E. coli EW1b(pBAD-fabK) (−) Ara

Row | SMILES | Fluorescence quenching of S. aureus FabI (S. aureus FabI) | MIC (E. coli EW1b; [6]) [µg/mL] | MIC (E. coli EW1b; [7]) [µg/mL] | MIC (S. aureus KCTC 1916 [1]) [µg/mL] | Inhibition of precursor incorporation, [1-14C] Acetate (S. aureus RN4220 [2]) [%] | Frequency of resistance (S. aureus KCTC 1916 [3]) | Frequency of resistance (S. aureus RN4220 [4]) | MIC for fabI-overexpressing E. coli relative to wild-type and vector-containing E. coli (E. coli EW1b(pBAD-fabI)) [fold] | MIC (E. coli EW1b(pBAD-fabI); [8]) [µg/mL] | MIC (E. coli EW1b(pBAD-fabI); [9]) [µg/mL] | Frequency of resistance (E. coli KCTC 1924) | MIC (E. coli EW1b(pBAD-fabK); [10]) [µg/mL] | MIC (E. coli EW1b(pBAD-fabK); [11]) [µg/mL] | also measured
1 | C=CC(C)(C)C12C=C(O)C(=O)N3/C(=C/c4cnc[nH]4)C(=O)NC31N(OC)c1ccccc12 (stereo not shown) [Compound 1, meleagrin] | same pattern as compound 5 | 32 (≈ 73.8 µM) | 32 (≈ 73.8 µM) | 32 (≈ 73.8 µM) | 62 | <1.03×10^−10 | <1.62×10^−10 | 4 | 128 (≈ 295 µM) | 32 (≈ 73.8 µM) | <6.7×10^−9 | 32 (≈ 73.8 µM) | 32 (≈ 73.8 µM) | Inhibition of precursor incorporation, L-[U-14C] Isoleucine (S. aureus RN4220 [2]): 6%; Inhibition of precursor incorporation, N-Acetyl-D-[1-14C] Glucosamine (S. aureus RN4220 [2]): 25%; Inhibition of precursor incorporation, [2-14C] Thymidine (S. aureus RN4220 [2]): 13%; Inhibition of precursor incorporation, [U-14C] Uridine (S. aureus RN4220 [2]): 17%; Inhibition of precursor incorporation, L-[U-14C] Isoleucine (S. pneumoniae KCTC 3932): 9%; Inhibition of precursor incorporation, N-Acetyl-D-[1-14C] Glucosamine (S. pneumoniae KCTC 3932): 3%; Inhibition of precursor incorporation, [1-14C] Acetate (S. pneumoniae KCTC 3932): 65%; Inhibition of precursor incorporation, [2-14C] Thymidine (S. pneumoniae KCTC 3932): 15%; Inhibition of precursor incorporation, [U-14C] Uridine (S. pneumoniae KCTC 3932): 2%
2 | Oc1cc(Cl)ccc1Oc1ccc(Cl)cc1Cl [Triclosan, reference compound] | resulted in fluorescence quenching | 0.002 (≈ 0.00691 µM) | 0.002 (≈ 0.00691 µM) | 0.01 (≈ 0.0345 µM) | 87 | – | – | – | > 0.08 | 0.002 (≈ 0.00691 µM) | – | > 0.08 | 0.002 (≈ 0.00691 µM) | –
3 | C=CC(C)(C)C12C=C(OC)C(=O)N3/C(=C/c4cnc[nH]4)C(=O)N(C)C31Nc1ccccc12 (stereo not shown) [Compound 6, O,N^14-dimethylglandicolin] | – | – | – | – | – | – | – | – | – | – | – | – | – | MIC [5]: 8 to 16 µg/mL (≈ 18.5 to 37.1 µM)
4 | C=CC(C)(C)C12C=C(OC)C(=O)N3/C(=C/c4cnc[nH]4)C(=O)N(C)C31N(OC)c1ccccc12 (stereo not shown) [Compound 5, O,N^14-dimethylmeleagrin] | fluorescence intensity decreased gradually | 16 (≈ 34.7 µM) | 16 (≈ 34.7 µM) | – | – | <1.03×10^−10 | <1.62×10^−10 | 4 | 64 (≈ 139 µM) | 16 (≈ 34.7 µM) | <6.7×10^−9 | 16 (≈ 34.7 µM) | 16 (≈ 34.7 µM) | MIC (S. aureus KCTC 1916 [1]; S. aureus KCTC 1916, read-out: MIC): 16 µg/mL (≈ 34.7 µM); MIC ([5]; other gram-positive bacteria incl. MRSA and QRSA strains, read-out: MIC): 8 to 16 µg/mL (≈ 17.3 to 34.7 µM)
5 | C=CC(C)(C)C12C=C(O)C(=O)N3/C(=C/c4cnc[nH]4)C(=O)NC31Nc1c(Br)cccc12 (stereo not shown) [Compound 7] | did not exhibit such an effect | – | – | – | – | – | – | – | – | – | – | – | – | –
